Results as given in patent US20240360126A1, “PYRAZOLO[3,4-B]PYRIDINE COMPOUNDS FOR THE TREATMENT OF AUTOIMMUNE DISEASE” (Hoffmann-La Roche Inc., priority 2021, published 2024).

biological target: T1, TLR9 (Homo sapiens, UniProt Q9NR96); assay: HEK293-Blue-hTLR-9 cells assay; format: cell-based; design: host or cells: HEK293 (HEK-Blue hTLR9); settings: HEK293-Blue-hTLR9 cells, ODN2006 stimulation, 20 hrs; read-out: HEK/hTLR9 IC50
T1 sequence (Q9NR96 26-1032): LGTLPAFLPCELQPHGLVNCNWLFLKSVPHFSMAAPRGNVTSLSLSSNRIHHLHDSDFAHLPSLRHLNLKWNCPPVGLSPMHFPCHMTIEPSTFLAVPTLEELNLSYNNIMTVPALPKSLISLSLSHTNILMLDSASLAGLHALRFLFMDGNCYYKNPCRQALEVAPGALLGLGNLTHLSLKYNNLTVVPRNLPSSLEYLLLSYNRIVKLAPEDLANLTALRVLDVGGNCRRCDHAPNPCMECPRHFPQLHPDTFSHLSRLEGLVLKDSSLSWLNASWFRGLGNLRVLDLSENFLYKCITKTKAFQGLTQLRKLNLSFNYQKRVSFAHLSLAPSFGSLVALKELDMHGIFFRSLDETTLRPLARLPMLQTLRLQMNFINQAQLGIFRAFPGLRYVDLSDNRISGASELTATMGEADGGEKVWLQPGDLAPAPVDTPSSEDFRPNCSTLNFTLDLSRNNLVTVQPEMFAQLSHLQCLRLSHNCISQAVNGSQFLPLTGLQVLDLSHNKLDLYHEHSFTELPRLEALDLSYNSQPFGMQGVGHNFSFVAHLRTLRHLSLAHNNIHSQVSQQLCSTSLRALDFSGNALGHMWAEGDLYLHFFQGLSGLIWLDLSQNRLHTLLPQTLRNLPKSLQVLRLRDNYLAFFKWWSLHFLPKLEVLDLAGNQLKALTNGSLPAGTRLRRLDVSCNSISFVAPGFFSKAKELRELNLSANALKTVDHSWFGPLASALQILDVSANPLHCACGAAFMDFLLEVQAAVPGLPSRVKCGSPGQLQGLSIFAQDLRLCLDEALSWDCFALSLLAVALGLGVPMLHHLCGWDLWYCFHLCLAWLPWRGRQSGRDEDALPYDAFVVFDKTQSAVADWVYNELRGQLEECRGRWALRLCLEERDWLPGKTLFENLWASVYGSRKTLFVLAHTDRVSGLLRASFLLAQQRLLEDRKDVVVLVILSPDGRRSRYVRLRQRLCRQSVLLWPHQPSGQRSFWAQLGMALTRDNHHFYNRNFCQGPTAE
Description: A stable HEK293-Blue-hTLR-9 cell line was purchased from InvivoGen (Cat. #: hkb-htlr9, San Diego, California, USA). These cells were originally designed for studying the stimulation of human TLR9 by monitoring the activation of NF-κB. A SEAP (secreted embryonic alkaline phosphatase) reporter gene was placed under the control of the IFN-β minimal promoter fused to five NF-κB and AP-1-binding sites. The SEAP was induced by activating NF-κB and AP-1 via stimulating HEK-Blue hTLR9 cells with TLR9 ligands. Therefore the reporter expression was declined by TLR9 antagonist under the stimulation of a ligand, such as ODN2006 (Cat. #: tlrl-2006-1, Invivogen, San Diego, California, USA), for incubation of 20 hrs. The cell culture supernatant SEAP reporter activity was determined using QiANTI-Blue™ kit (Cat. #: rep-qbl, Invivogen, San Diego, California, USA) at a wavelength of 640 nm, a detection medium that turns purple or blue in the presence of alkaline phosphatase.
HEK293-Blue-hTLR9 cells were incubated at a density of 250,000-450,000 cells/mL in a volume of 170 μL in a 96-well plate in Dulbecco's Modified Eagle's medium (DMEM) containing 4.5 g/L glucose, 50 U/mL penicillin, […], […], 10% (v/v) heat-inactivated fetal bovine serum with addition of 20 μL test compound in a serial dilution in the presence of final DMSO at 1% and 10 μL of 20 μM ODN2006 in above DMEM, perform incubation under 37° C. in a C02 incubator for 20 hrs. Then 20 μL of the supernatant from each well was incubated with 180 μl. Quanti-blue substrate solution at 37° C. for 2 h and the absorbance was read at 620˜655 nm using a spectrophotometer. The signaling pathway that TLR9 activation leads to downstream NF-κB activation has been widely accepted, and therefore similar reporter assay was modified for evaluating TLR9 antagonist.

Compound | IC50
CO[C@H]1CN(c2ccc([C@H]3CCN(c4cc(C)nc5c4cnn5C)C[C@@H]3C)nc2)CC[C@@H]1N [Example 39, (3S,4S)-1-[6-[(3R,4S)-1-(1,6-dimethylpyrazolo[3,4-b]pyridin-4-yl)-3-methyl-4-piperidyl]-3-pyridyl]-3-methoxy-piperidin-4-amine] | 0.211 µM
Cc1cc(N2CCC(c3ncc(N4CCNCC4)cc3C)[C@H](C)C2)c2cnn(C)c2n1 (single isomer, unassigned) [Example 24, 1,6-dimethyl-4-[cis-3-methyl-4-(3-methyl-5-piperazin-1-yl-2-pyridyl)-1-piperidyl]pyrazolo[3,4-b]pyridine] | 0.076 µM
Cc1cc(N2CCC(c3cnc(N4CCNCC4)cc3C)[C@H](C)C2)c2cnn(C)c2n1 (single isomer, unassigned) [Example 21, 1,6-dimethyl-4-[trans-3-methyl-4-(4-methyl-6-piperazin-1-yl-3-pyridyl)-1-piperidyl]pyrazolo[3,4-b]pyridine] | 0.372 µM
Cc1cc(N2CCC(c3ccc(N4CCNCC4)cc3)CC2)c2cnn(C)c2n1 [Example 1, 1,6-dimethyl-4-[4-(4-piperazin-1-ylphenyl)-1-piperidyl]pyrazolo[3,4-b]pyridine] | 0.275 µM
Cc1cc(N2CC[C@@H](c3ncc(N4C[C@H]5NCCO[C@@H]5C4)cc3C)[C@H](C)C2)c2cnn(C)c2n1 [Example 33, (4aR,7aR)-6-[6-[(3S,4R)-1-(1,6-dimethylpyrazolo[3,4-b]pyridin-4-yl)-3-methyl-4-piperidyl]-5-methyl-3-pyridyl]-3,4,4a,5,7,7a-hexahydro-2H-pyrrolo[3,4-b][1,4]oxazine] | 0.079 µM
Cc1cc(N2CC[C@@H](c3ncc(N4CC(C)(N)C4)cc3C)[C@H](C)C2)c2cnn(C)c2n1 [Example 32, 1-[6-[(3S,4R)-1-(1,6-dimethylpyrazolo[3,4-b]pyridin-4-yl)-3-methyl-4-piperidyl]-5-methyl-3-pyridyl]-3-methyl-azetidin-3-amine] | 0.186 µM
Cc1cc(N2CCC(c3cnc(N4CCNCC4)cc3C)CC2)c2cnn(C)c2n1 [Example 8, 1,6-dimethyl-4-[4-(4-methyl-6-piperazin-1-yl-3-pyridyl)-1-piperidyl]pyrazolo[3,4-b]pyridine] | 0.195 µM

The next lines start with the values.

IC50 | Compound
0.109 µM | CO[C@@H]1CN(c2cnc([C@@H]3CCN(c4cc(C)nc5c4cnn5C)C[C@H]3C)c(C)c2)C[C@H]1N [Example 26, (3R,4R)-1-[6-[(3S,4R)-1-(1,6-dimethylpyrazolo[3,4-b]pyridin-4-yl)-3-methyl-4-piperidyl]-5-methyl-3-pyridyl]-4-methoxy-pyrrolidin-3-amine]
0.219 µM | Cc1cc(N2CC[C@@H](c3ncc(N4CC[C@@H](N)[C@H](F)C4)cc3C)[C@H](C)C2)c2cnn(C)c2n1 [Example 31, (3R,4R)-1-[6-[(3S,4R)-1-(1,6-dimethylpyrazolo[3,4-b]pyridin-4-yl)-3-methyl-4-piperidyl]-5-methyl-3-pyridyl]-3-fluoro-piperidin-4-amine]
0.052 µM | Cc1cc(N2CCC(c3ncc(N4CCNCC4)cc3C)CC2)c2cnn(C)c2n1 [Example 7, 1,6-dimethyl-4-[4-(3-methyl-5-piperazin-1-yl-2-pyridyl)-1-piperidyl]pyrazolo[3,4-b]pyridine]
0.126 µM | Cc1cc(N2CC[C@@H](c3ncc(N4CCOC[C@@H](N)C4)cc3C)[C@H](C)C2)c2cnn(C)c2n1 [Example 28, (6S)-4-[6-[(3S,4R)-1-(1,6-dimethylpyrazolo[3,4-b]pyridin-4-yl)-3-methyl-4-piperidyl]-5-methyl-3-pyridyl]-1,4-oxazepan-6-amine]
0.165 µM | Cc1cc(N2CC[C@@H](c3ccc(N4CCNCC4)cn3)[C@H](C)C2)c2cnn(C)c2n1 [Example 34, 1,6-dimethyl-4-[(3S,4R)-3-methyl-4-(5-piperazin-1-yl-2-pyridyl)-1-piperidyl]pyrazolo[3,4-b]pyridine]
0.098 µM | Cc1cc(N2CCC(c3ncc(N4CCNCC4)cc3C)[C@H](C)C2)c2cnn(C)c2n1 (single isomer, unassigned) [Example 25, 1,6-dimethyl-4-[trans-3-methyl-4-(3-methyl-5-piperazin-1-yl-2-pyridyl)-1-piperidyl]pyrazolo[3,4-b]pyridine]
0.168 µM | CCc1cc(N2CCNCC2)cnc1C1CCN(c2cc(C)nc3c2cnn3C)CC1 [Example 13, 4-[4-(3-ethyl-5-piperazin-1-yl-2-pyridyl)-1-piperidyl]-1,6-dimethyl-pyrazolo[3,4-b]pyridine]
